Tests used:
[1] = system: Tyrosine-protein kinase ABL1 (Homo sapiens), P00519 [F317I]
[2] = molecular target: Serine/threonine-protein kinase Nek11 (Homo sapiens) (UniProt Q8NG66)
[3] = molecular target: 5'-AMP-activated protein kinase catalytic subunit alpha-2 (Homo sapiens) (UniProt P54646)
[4] = molecular target: Casein kinase I isoform epsilon (Homo sapiens) (UniProt P49674)
[5] = molecular target: Serine/threonine-protein kinase Nek7 (Homo sapiens) (UniProt Q8TDX7)
[6] = system: Tyrosine-protein kinase ABL1 (Homo sapiens), P00519 [F317L]
[7] = molecular target: Serine/threonine-protein kinase Chk2 (Homo sapiens) (UniProt O96017)
[8] = molecular target: Non-receptor tyrosine-protein kinase TNK1 (Homo sapiens) (UniProt Q13470)
[9] = molecular target: Testis-specific serine/threonine-protein kinase 3 (Homo sapiens) (UniProt Q96PN8)
[10] = molecular target: Phosphatidylinositol 4,5-bisphosphate 3-kinase catalytic subunit beta isoform (Homo sapiens) (UniProt P42338)
[11] = molecular target: Phosphatidylinositol 4-phosphate 5-kinase type-1 gamma (Homo sapiens) (UniProt O60331)
[12] = molecular target: Ribosomal protein S6 kinase alpha-3 (Homo sapiens) (UniProt P51812)
[13] = molecular target: Beta-adrenergic receptor kinase 1 (Homo sapiens) (UniProt P25098)
[14] = molecular target: Receptor tyrosine-protein kinase erbB-4 (Homo sapiens) (UniProt Q15303)
[15] = system: Mast/stem cell growth factor receptor Kit (Homo sapiens), P10721 [V559D,T670I]
[16] = molecular target: Cyclin-dependent kinase 2 homolog (Plasmodium falciparum (isolate 3D7)) (UniProt P61075)
[17] = molecular target: Ribosomal protein S6 kinase alpha-5 (Homo sapiens) (UniProt O75582)
[18] = molecular target: Ephrin type-B receptor 1 (Homo sapiens) (UniProt P54762)
[19] = molecular target: Serine/threonine-protein kinase 24 (Homo sapiens) (UniProt Q9Y6E0)
[20] = molecular target: Mitogen-activated protein kinase 1 (Homo sapiens) (UniProt P28482)
[21] = molecular target: Protein-tyrosine kinase 2-beta (Homo sapiens, UniProt Q14289)
[22] = molecular target: Serine/threonine-protein kinase VRK2 (Homo sapiens) (UniProt Q86Y07)
[23] = molecular target: Proto-oncogene tyrosine-protein kinase Src (Homo sapiens, UniProt P12931)
[24] = molecular target: Mitogen-activated protein kinase kinase kinase 6 (Homo sapiens) (UniProt O95382)
[25] = molecular target: Interferon-induced, double-stranded RNA-activated protein kinase (Homo sapiens) (UniProt P19525)
[26] = molecular target: Maternal embryonic leucine zipper kinase (Homo sapiens) (UniProt Q14680)
[27] = molecular target: Serine/threonine-protein kinase/endoribonuclease IRE1 (Homo sapiens) (UniProt O75460)
[28] = molecular target: 5-hydroxytryptamine receptor 7 (Homo sapiens) (UniProt P34969); settings: Compound concentration 10.0 uM
[29] = molecular target: Serine/threonine-protein kinase Nek2 (Homo sapiens) (UniProt P51955)
[30] = molecular target: ALK tyrosine kinase receptor (Homo sapiens) (UniProt Q9UM73)
[31] = molecular target: Mitogen-activated protein kinase kinase kinase 13 (Homo sapiens) (UniProt O43283)
[32] = molecular target: Serine/threonine-protein kinase D3 (Homo sapiens) (UniProt O94806)
[33] = molecular target: Mitogen-activated protein kinase kinase kinase kinase 2 (Homo sapiens) (UniProt Q12851)
[34] = molecular target: Dual specificity testis-specific protein kinase 1 (Homo sapiens) (UniProt Q15569)
[35] = molecular target: Casein kinase I isoform gamma-3 (Homo sapiens) (UniProt Q9Y6M4)
[36] = molecular target: SRSF protein kinase 1 (Homo sapiens) (UniProt Q96SB4)
[37] = system: ALK tyrosine kinase receptor (Homo sapiens), Q9UM73 [L1196M]
[38] = system: Mast/stem cell growth factor receptor Kit (Homo sapiens), P10721 [L576P]
[39] = system: eIF-2-alpha kinase GCN2 (Homo sapiens), Q9P2K8 [S808G]
[40] = molecular target: Sigma intracellular receptor 2 (Homo sapiens, UniProt Q5BJF2); settings: Compound concentration 10.0 uM
[41] = molecular target: Tyrosine-protein kinase JAK2 (Homo sapiens) (UniProt O60674)
[42] = system: Proto-oncogene tyrosine-protein kinase receptor Ret (Homo sapiens), P07949 [V804L]
[43] = molecular target: Misshapen-like kinase 1 (Homo sapiens) (UniProt Q8N4C8)
[44] = molecular target: Serine/threonine-protein kinase WNK1 (Homo sapiens) (UniProt Q9H4A3)
[45] = molecular target: Protein kinase C eta type (Homo sapiens) (UniProt P24723)
[46] = Compound concentration 100.0 nM
[47] = Compound concentration 1000.0 nM

Chain of Protein-tyrosine kinase 2-beta (Q14289 whole entry, looked up): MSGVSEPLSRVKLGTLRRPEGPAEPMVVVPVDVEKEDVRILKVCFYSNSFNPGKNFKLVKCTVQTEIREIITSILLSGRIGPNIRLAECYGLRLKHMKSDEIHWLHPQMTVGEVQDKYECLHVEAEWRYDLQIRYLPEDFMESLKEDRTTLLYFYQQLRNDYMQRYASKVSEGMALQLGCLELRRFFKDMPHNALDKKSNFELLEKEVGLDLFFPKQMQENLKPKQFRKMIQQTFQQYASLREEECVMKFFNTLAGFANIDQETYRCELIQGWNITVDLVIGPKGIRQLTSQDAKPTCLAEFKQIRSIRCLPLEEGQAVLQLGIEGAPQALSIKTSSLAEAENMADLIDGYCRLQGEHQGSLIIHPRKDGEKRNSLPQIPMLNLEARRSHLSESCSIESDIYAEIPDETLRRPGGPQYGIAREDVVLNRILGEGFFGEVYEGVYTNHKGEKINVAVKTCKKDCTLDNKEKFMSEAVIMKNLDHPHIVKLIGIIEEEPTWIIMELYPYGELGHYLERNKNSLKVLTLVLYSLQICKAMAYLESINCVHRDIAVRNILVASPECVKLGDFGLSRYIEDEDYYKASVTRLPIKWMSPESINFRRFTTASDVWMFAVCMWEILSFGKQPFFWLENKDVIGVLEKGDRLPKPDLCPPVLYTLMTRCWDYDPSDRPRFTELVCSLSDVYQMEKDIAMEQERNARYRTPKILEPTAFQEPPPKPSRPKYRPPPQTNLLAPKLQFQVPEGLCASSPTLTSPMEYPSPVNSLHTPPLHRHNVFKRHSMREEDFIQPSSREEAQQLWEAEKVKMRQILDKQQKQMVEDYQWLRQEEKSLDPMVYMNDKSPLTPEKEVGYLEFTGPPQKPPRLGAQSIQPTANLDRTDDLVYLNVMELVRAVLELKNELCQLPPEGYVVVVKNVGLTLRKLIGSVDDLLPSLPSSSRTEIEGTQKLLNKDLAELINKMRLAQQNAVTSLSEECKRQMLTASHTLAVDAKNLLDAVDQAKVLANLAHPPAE
Chain of eIF-2-alpha kinase GCN2 (Homo sapiens), Q9P2K8 [S808G] (Q9P2K8 whole entry S808G): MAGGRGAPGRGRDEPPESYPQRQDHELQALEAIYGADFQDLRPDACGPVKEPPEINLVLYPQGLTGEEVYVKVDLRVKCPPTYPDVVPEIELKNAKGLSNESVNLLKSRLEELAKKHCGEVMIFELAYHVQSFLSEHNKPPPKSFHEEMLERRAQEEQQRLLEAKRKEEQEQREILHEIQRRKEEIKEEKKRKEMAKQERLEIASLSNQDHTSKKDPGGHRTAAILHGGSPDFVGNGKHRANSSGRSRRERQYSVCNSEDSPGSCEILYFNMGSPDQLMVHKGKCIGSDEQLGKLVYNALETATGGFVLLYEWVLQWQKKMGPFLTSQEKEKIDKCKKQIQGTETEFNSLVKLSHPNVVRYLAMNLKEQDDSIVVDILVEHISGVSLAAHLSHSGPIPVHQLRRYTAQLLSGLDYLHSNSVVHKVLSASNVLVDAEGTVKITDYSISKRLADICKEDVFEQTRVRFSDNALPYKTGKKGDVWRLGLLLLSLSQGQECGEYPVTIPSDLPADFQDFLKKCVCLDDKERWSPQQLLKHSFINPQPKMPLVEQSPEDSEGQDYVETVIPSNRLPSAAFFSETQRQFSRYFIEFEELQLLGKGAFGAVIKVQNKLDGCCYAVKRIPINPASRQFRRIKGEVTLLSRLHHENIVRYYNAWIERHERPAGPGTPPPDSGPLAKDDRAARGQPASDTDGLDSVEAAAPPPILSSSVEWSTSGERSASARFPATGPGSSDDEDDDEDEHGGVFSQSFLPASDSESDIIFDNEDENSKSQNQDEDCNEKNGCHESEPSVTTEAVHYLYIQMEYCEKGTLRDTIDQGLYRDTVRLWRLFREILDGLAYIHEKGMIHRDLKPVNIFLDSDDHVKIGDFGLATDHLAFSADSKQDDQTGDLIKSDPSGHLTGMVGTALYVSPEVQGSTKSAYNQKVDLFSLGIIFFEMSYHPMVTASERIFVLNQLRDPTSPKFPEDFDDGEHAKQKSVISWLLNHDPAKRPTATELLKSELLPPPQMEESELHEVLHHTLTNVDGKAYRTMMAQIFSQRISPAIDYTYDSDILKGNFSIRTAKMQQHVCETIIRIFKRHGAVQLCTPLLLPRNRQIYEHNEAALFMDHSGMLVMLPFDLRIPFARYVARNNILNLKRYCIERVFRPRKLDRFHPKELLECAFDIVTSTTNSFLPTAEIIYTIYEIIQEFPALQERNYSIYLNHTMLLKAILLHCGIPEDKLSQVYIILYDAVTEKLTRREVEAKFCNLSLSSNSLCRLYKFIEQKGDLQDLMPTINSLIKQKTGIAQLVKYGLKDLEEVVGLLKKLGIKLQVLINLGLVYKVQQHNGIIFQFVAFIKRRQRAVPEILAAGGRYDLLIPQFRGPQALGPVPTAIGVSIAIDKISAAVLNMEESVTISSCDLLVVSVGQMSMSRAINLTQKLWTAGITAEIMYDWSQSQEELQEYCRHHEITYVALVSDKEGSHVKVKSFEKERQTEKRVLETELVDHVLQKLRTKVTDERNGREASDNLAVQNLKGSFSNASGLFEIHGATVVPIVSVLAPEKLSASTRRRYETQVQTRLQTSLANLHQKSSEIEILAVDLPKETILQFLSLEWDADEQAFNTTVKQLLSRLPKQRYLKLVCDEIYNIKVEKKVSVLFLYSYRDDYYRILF
Chain of Serine/threonine-protein kinase VRK2 (Homo sapiens) (Q86Y07 whole entry): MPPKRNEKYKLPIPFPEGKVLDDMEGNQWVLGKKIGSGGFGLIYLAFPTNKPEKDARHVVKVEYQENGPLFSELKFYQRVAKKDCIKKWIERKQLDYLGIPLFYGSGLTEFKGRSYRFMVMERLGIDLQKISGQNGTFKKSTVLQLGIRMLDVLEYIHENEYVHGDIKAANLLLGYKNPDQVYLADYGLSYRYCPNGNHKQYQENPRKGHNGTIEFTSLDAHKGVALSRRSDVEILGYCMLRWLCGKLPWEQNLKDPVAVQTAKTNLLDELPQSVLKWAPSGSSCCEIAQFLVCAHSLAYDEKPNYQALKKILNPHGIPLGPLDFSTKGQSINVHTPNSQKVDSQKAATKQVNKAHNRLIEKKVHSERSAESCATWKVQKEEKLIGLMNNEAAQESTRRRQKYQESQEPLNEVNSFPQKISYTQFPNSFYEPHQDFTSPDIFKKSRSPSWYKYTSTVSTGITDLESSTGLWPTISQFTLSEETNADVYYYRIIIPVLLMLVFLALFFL
Chain of Proto-oncogene tyrosine-protein kinase receptor Ret (Homo sapiens), P07949 [V804L] (P07949 whole entry V804L): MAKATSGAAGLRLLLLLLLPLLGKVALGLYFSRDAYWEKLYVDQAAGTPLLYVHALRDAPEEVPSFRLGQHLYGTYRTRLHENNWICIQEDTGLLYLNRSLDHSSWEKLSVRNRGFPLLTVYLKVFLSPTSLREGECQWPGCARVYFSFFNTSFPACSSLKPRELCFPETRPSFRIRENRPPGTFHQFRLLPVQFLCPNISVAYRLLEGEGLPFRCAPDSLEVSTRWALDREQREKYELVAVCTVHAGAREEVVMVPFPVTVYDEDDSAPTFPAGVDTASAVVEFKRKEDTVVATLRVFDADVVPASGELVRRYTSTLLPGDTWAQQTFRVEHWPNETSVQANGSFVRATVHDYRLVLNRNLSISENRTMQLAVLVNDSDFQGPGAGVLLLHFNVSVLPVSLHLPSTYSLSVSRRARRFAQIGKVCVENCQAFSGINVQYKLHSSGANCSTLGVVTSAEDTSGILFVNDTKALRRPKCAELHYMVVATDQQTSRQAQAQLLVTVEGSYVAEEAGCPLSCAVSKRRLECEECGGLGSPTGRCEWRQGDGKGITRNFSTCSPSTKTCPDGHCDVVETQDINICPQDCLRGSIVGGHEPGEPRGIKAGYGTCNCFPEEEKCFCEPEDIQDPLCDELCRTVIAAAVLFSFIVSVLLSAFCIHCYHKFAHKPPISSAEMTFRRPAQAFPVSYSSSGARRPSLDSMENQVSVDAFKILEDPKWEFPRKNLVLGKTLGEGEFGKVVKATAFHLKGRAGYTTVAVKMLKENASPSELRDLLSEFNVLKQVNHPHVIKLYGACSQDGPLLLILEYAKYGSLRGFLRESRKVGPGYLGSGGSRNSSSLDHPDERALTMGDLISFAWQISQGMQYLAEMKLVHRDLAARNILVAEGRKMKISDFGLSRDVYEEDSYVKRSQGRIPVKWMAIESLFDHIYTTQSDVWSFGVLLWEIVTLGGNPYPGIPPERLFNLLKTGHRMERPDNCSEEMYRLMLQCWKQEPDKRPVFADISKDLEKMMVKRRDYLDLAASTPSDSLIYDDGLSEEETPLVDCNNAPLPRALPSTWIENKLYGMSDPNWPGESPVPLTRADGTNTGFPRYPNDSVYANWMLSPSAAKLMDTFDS
Chain of Phosphatidylinositol 4-phosphate 5-kinase type-1 gamma (Homo sapiens) (O60331 whole entry): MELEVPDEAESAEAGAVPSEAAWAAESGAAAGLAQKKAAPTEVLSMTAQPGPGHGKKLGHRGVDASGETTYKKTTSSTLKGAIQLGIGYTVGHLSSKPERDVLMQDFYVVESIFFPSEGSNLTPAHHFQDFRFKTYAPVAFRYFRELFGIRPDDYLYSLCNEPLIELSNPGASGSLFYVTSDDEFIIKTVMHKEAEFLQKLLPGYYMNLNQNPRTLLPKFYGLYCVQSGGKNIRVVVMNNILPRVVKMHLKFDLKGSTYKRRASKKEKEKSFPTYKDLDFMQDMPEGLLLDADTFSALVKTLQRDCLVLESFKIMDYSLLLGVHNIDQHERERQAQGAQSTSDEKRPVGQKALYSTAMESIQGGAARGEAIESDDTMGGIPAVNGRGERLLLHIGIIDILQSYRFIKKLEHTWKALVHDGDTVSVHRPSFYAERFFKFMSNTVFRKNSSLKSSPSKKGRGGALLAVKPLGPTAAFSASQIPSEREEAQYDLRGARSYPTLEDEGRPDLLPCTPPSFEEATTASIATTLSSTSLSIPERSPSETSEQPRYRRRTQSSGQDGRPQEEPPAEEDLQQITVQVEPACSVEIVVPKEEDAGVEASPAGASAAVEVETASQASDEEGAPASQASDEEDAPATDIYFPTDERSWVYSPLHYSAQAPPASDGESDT

CNC(=O)c1ccc(Nc2ncc(C(F)(F)F)c(NCc3nccnc3N(C)S(C)(=O)=O)n2)cc1 [DEFACTINIB]
residual activity [1, 46]: 100%
residual activity [2, 46]: 89%
residual activity [3, 46]: 100%
residual activity [4, 46]: 100%
residual activity [5, 46]: 70%
residual activity [6, 46]: 100%
residual activity [7, 46]: 100%
residual activity [8, 46]: 100%
residual activity [9, 46]: 77%
residual activity [10, 46]: 45%
residual activity [11, 46]: 100%
residual activity [12, 46]: 100%
residual activity [13, 46]: 89%
residual activity [14, 46]: 84%
residual activity [15, 46]: 100%
residual activity [16, 46]: 89%
residual activity [17, 46]: 81%
residual activity [18, 46]: 87%
residual activity [19, 46]: 54%
residual activity [20, 46]: 76%
residual activity [21, 46]: 8.3%
residual activity [22, 46]: 85%
residual activity [23, 46]: 79%
residual activity [24, 46]: 90%
residual activity [25, 46]: 100%
residual activity [26, 46]: 23%
residual activity [27, 46]: 75%
inhibition [28]: 5.31%
residual activity [29, 46]: 75%
residual activity [30, 46]: 58%
residual activity [31, 46]: 98%
residual activity [32, 46]: 100%
residual activity [33, 46]: 100%
residual activity [34, 46]: 96%
residual activity [35, 46]: 100%
residual activity [36, 46]: 51%
residual activity [37, 46]: 85%
residual activity [38, 46]: 86%
residual activity [39, 46]: 27%
inhibition [40]: 48.1%
residual activity [41, 46]: 4.8%
residual activity [42, 46]: 30%
residual activity [43, 46]: 44%
residual activity [44, 46]: 100%
residual activity [45, 46]: 86%

CN(c1ccnc(CNc2nc(Nc3ccc4c(c3)CC(=O)N4)ncc2C(F)(F)F)n1)S(C)(=O)=O [PF-00911705]
residual activity [1, 47]: 100%
residual activity [2, 47]: 100%
residual activity [3, 47]: 87%
residual activity [4, 47]: 100%
residual activity [5, 47]: 68%
residual activity [6, 47]: 71%
residual activity [7, 47]: 0%
residual activity [8, 47]: 65%
residual activity [9, 47]: 80%
residual activity [10, 47]: 100%
residual activity [11, 47]: 91%
residual activity [12, 47]: 85%
residual activity [13, 47]: 31%
residual activity [14, 47]: 46%
residual activity [15, 47]: 100%
residual activity [16, 47]: 75%
residual activity [17, 47]: 96%
residual activity [18, 47]: 99%
residual activity [19, 47]: 93%
residual activity [20, 47]: 70%
residual activity [21, 47]: 59%
residual activity [22, 47]: 78%
residual activity [23, 47]: 60%
residual activity [24, 47]: 73%
residual activity [25, 47]: 82%
residual activity [26, 47]: 40%
residual activity [27, 47]: 49%
inhibition [28]: -4.55%
residual activity [29, 47]: 83%
residual activity [30, 47]: 81%
residual activity [31, 47]: 0%
residual activity [32, 47]: 100%
residual activity [33, 47]: 39%
residual activity [34, 47]: 97%
residual activity [35, 47]: 100%
residual activity [36, 47]: 17%
residual activity [37, 47]: 65%
residual activity [38, 47]: 66%
residual activity [39, 47]: 6.7%
inhibition [40]: 60.3%
residual activity [41, 47]: 3.8%
residual activity [42, 47]: 21%
residual activity [43, 47]: 53%
residual activity [44, 47]: 87%
residual activity [45, 47]: 100%
